According to article PMC11505594, “Design, Synthesis, and Anti-Melanogenic Activity of 2-Mercaptomethylbenzo[d]imidazole Derivatives Serving as Tyrosinase Inhibitors: An In Silico, In Vitro, and In Vivo Exploration” (Antioxidants, 2024):
“Also recorded” adds a separate entry of the source. Where two headings read alike, the source gives them in different places.

Key:
zebrafish larvae = test: Melanogenesis (depigmentation) assay using zebrafish embryos; format: in vivo
Method: To assess depigmentation in vivo, wild-type zebrafish (Danio rerio) embryos were acquired free of charge from the Zebrafish Center for Disease Modeling (ZCDM) located at Chungnam National University in Daejeon, Republic of Korea. The zebrafish were raised in tanks maintained at 28 °C in the ZCDM. The tanks were oxygenated, and the tank lights were turned off for 10 h and on for 14 h. The zebrafish embryos used for in vivo depigmentation experiments were obtained through natural mating. The E3 solution for zebrafish embryos was prepared by dissolving 19.9 mg magnesium sulfate, 6.4 mg potassium chloride, 18.3 mg calcium chloride, and 146.1 mg sodium chloride in 500 mL distilled water. E3-MB (methylene blue) solution was prepared by adding MB to the E3 solution to create a 0.001% MB solution. The acquired zebrafish embryos were transferred to a culture dish containing the E3-MB solution. The culture dish was incubated at 28 °C until zebrafish embryos were used. Since zebrafish embryos are sensitive and can be easily killed by the chorion removal process 20 h post-fertilization (20 hpf), the chorion was removed at 24 hpf through treatment with pronase (Sigma-Aldrich, St. Louis, MO, USA). Five dechorionated zebrafish embryos were transferred to each well of 48-well microplates containing 250 μL E3 solution. […] Zebrafish larvae were anesthetized with tricaine at 76 hpf and placed on a 1% methylcellulose block to determine the degree of zebrafish larva depigmentation. Dorsal and lateral images of the zebrafish larvae were acquired using an SMZ745T microscope (Nikon, Tokyo, Japan). The pigmented areas of the dorsal and lateral images were obtained using CS analyzer 3.0 image analysis software (ATTO, Tokyo, Japan). Each assay (n = 7) was independently performed two times.

mushroom TYR [1] = molecular target: T1, mushroom TYR (Agaricus bisporus, UniProt C7FF04); test: Kinetic studies on mushroom TYR (Lineweaver–Burk and Dixon plots); format: biochemical; conditions: L-dopa as substrate
Method: Kinetic experiments were performed to obtain Lineweaver–Burk plots for the analysis of mushroom TYR kinetics. Mushroom TYR solution (20 μL, 150 units/mL) was added to each well of a 96-well microplate containing 2-MMBI derivatives (10 μL; 0, 7.5, 15, and 30 μM for 1; 0, 5, 10, and 20 μM for 3 and 8; and 0, 12.5, 25, and 50 μM for 9) and a substrate solution (170 μL) composed of sodium phosphate buffer (17.2 mM; pH 6.5) and L-dopa (various concentrations: 0.5, 1, 2, 4, 8, and 16 mM). […] Lineweaver–Burk plots for each 2-MMBI derivative were obtained by plotting the value of 1/[substrate] against the value of (min/ΔOD475). Lineweaver–Burk plots were transformed into corresponding Dixon plots by plotting the value of (min/ΔOD475) against the value of the 2-MMBI derivative concentration.

mushroom TYR [2] = molecular target: T1, mushroom TYR; test: Mushroom TYR activity assay with and without CuSO4; format: biochemical; conditions: 20 μM derivative, L-tyrosine
Method: To determine whether copper(II) ions influence the TYR-inhibitory activity of 2-MMBI derivatives, the effects of these derivatives on mushroom TYR activity were measured with and without CuSO4. Briefly, mushroom TYR aqueous solution (20 μL, 1 unit/μL) was mixed with 2-MMBI derivatives (1, 3, and 8–10) (10 μL, final concentration: 20 μM) and with the substrate solution (170 μL), comprising 17.2 mM phosphate buffer (pH 6.5) and 345 μM L-tyrosine, in the presence or absence of CuSO4 (50 μL, final concentration: 50 μM) in each well of a 96-well plate. […] Each assay was carried out independently in triplicate.

B16F10 cells = test: Melanin content measurement assay in B16F10 cells; format: cell-based, murine; conditions: α-MSH 1 μM plus IBMX 200 μM, 72 h; for effect on B16F10 cellular melanin production at three concentrations: 2, 5, and 10 μM
Method: A 6-well plate containing 5 × 10^3 B16F10 cells per well was incubated at 37 °C and 5% CO2 for 1 day. […] After 1 h, 1 μM α-MSH and 200 μM IBMX were added to each well, and the plate was subsequently incubated at 37 °C and 5% CO2 for 72 h. The cells were exposed to […] 1N-NaOH solution and cultured at 60 °C for 1 h after washing with PBS. The lysates were transferred to each well of a 96-well plate, and the optical density at 405 nm was recorded using a VersaMax™ reader. […] Each assay was independently performed three times.

B16F10 cellular TYR = molecular target: T2, B16F10 cellular TYR (Mus musculus, UniProt P11344); test: TYR activity assay in B16F10 cells; format: cell-based, murine; conditions: 2, 5, and 10 μM; α-MSH 1 μM plus IBMX 200 μM; 72 h
T2 construct: The in situ cellular TYR activities of the 2-MMBI derivatives were investigated using B16F10 cells; endogenous in cells; host or cells: B16F10 murine melanoma cells stimulated with alpha-MSH and IBMX
T2 sequence (P11344 19-533): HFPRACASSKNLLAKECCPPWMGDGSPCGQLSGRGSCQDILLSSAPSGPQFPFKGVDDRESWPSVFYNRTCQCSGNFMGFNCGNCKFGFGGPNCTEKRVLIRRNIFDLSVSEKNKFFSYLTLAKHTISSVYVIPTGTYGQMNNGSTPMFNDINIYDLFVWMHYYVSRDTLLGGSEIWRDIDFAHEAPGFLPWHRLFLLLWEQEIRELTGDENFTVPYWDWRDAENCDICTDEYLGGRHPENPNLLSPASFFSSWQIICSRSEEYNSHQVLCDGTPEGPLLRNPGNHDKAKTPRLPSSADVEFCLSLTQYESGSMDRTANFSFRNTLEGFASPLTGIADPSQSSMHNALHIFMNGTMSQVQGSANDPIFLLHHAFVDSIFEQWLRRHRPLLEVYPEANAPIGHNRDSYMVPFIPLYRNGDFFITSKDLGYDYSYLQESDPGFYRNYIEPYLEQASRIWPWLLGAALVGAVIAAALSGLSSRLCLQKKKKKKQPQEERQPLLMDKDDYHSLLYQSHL
Method: A 6-well plate containing 5 × 10^3 B16F10 cells per well was incubated (37 °C and 5% CO2) for 1 day. […] Stimulators (1 μM α-MSH and 200 μM IBMX) were added after 1 h, and the plate was incubated (37 °C and 5% CO2) for 72 h. After washing with PBS, 100 μL lysis buffer consisting of 1% Triton X-100, 1 mM phenylmethylsulfonyl fluoride, and 50 mM sodium phosphate buffer (pH 6.5) in a volume ratio of 1:1:18 was added to each well. Following an incubation period of 30 min at −80 °C, the cell lysates were centrifuged at 12,000× g for 10 min at 4 °C to obtain the supernatants. […] Each assay was independently performed three times.

[3] = Reactive oxygen species removal activity assay (SIN-1, DCFH); conditions: test samples 40 μM; SIN-1 10 μM
Method: To assess reactive oxygen species (ROS) removal activity, a DCFH solution was prepared by mixing 50 μL DCFH-DA (1.25 mM), 50 μL esterase (0.6 unit/μL), and 4.9 mL phosphate buffer (50 mM) and maintained in the dark for 30 min. The SIN-1 solution (10 μL) was added to each well of a 96-black well that contained the test sample (10 μL; 2-MMBI derivatives 1–10 and Trolox [positive material]) and phosphate buffer (180 μL). 2-MMBI derivatives, Trolox, and SIN-1 were exposed at final concentrations of 40, 40, and 10 μM, respectively. The prepared DCFH solution (50 μL) was added to each well after 10 min. The fluorescence intensity of 2′,7′-dichlorofluorescein in the wells was measured at 535 nm using a microplate reader (Berthold Advances GmbH & Co., Bad Wildbad, Germany) with an excitation wavelength of 485 nm. Each experiment was conducted independently four times.

B16F10 cell TYR = molecular target: T3, B16F10 cell TYR (Mus musculus, UniProt P11344); test: In situ B16F10 cellular TYR activity assay (L-dopa staining); format: cell-based, murine; conditions: α-MSH plus IBMX 72 h; for in situ B16F10 cell TYR activity (cell staining), concentration series: 2, 5, and 10 μM
T3 construct: The in situ cellular TYR activities of the 2-MMBI derivatives were investigated using B16F10 cells; endogenous in cells; host or cells: B16F10 murine melanoma cells stimulated with alpha-MSH and IBMX
T3 sequence (P11344 19-533): T2 sequence (P11344 19-533)
Method: B16F10 cells (2 × 10^3/well) were inoculated in each well of a 24-well microplate and cultured for 1 day in an incubator (37 °C and 5% CO2). […] Subsequently, stimulators (α-MSH [1 μM] and IBMX [200 μM]) were added to each well. […] Stained photographs were captured using a camera attached to a microscope (Motic, Hong Kong, China). Each assay was independently performed two times.

[4] = CuSO4 50 μM added externally, read-out: inhibition of mushroom TYR activity with CuSO4
[5] = no CuSO4 added externally, read-out: inhibition of mushroom TYR activity without CuSO4
[6] = 0.03 and 0.1 mM, 48 h exposure from 28 hpf

T1 sequence (C7FF04 2-392): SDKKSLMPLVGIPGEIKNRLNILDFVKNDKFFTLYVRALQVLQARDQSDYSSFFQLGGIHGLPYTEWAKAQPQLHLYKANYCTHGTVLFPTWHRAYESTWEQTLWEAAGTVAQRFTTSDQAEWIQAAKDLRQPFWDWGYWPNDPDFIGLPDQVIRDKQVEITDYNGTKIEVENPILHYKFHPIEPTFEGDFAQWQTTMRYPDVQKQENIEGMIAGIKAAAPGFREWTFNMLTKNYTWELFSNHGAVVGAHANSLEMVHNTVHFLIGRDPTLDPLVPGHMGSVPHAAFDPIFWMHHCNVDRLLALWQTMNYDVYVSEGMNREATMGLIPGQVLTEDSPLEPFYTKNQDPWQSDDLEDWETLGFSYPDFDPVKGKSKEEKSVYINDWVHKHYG

SCc1nc2ccccc2[nH]1 [Derivative 1, (1H-Benzo[d]imidazol-2-yl)methanethiol]
depigmentation of zebrafish larvae at 0.1 mM (zebrafish larvae; 0.1 mM, compared with kojic acid 20 mM, 48 h): much more potent inhibition of melanin production in zebrafish larvae than kojic acid
pigmentation area of zebrafish larvae (CS analyzer, dorsal and lateral views) (zebrafish larvae; derivatives 0.03 and 0.1 mM, kojic acid 20 mM): reduced the pigmentation area more strongly than kojic acid in a concentration-dependent manner
inhibition mechanism (mushroom TYR [1]): competitive TYR inhibitors
inhibition at 20 µM (mushroom TYR [2]; [4]): 76%
inhibition at 20 µM (mushroom TYR [2]; [5]): 86 to 89%
effect on B16F10 cellular melanin production at 10 μM (B16F10 cells): relatively low melanin inhibitory effect

N#Cc1ccc2[nH]c(CS)nc2c1 [Derivative 5, 2-(Mercaptomethyl)-1H-benzo[d]imidazole-5-carbonitrile]
depigmentation of zebrafish larvae at 0.03 and 0.1 mM (zebrafish larvae; 0.03 and 0.1 mM, 48 h): did not exhibit significant depigmentation

FC(F)(F)c1ccc2[nH]c(CS)nc2c1 [Derivative 7, (5-(Trifluoromethyl)-1H-benzo[d]imidazol-2-yl)methanethiol]
zebrafish larvae death (zebrafish larvae; [6]): all zebrafish larvae died at the tested concentrations
effect on B16F10 cellular TYR activity (B16F10 cellular TYR): significantly reduced stimulator-enhanced cellular TYR activity in a dose-dependent manner
ROS scavenging activity [3]: stronger ROS scavenging efficacy than the other derivatives
in situ B16F10 cell TYR activity (cell staining) at 10 μM (B16F10 cell TYR): inhibited in situ B16F10 cell TYR activity much more potently than kojic acid
in situ B16F10 cell TYR activity (cell staining), concentration series (B16F10 cell TYR): reduced the increase in cell staining induced by α-MSH and IBMX in a concentration-dependent manner
effect on B16F10 cellular melanin production at 10 μM (B16F10 cells): inhibited melanin production more strongly than kojic acid; also recorded: strongest melanin inhibitory effect
effect on B16F10 cellular melanin production at three concentrations (B16F10 cells): significantly decreased the melanin levels increased by the stimulators in a concentration-dependent manner; also recorded: potently reduced the stimulator-induced increase in melanin content to the levels observed in the control group

SCc1nc2cc(Cl)ccc2[nH]1 [Derivative 2, (5-Chloro-1H-benzo[d]imidazol-2-yl)methanethiol]
depigmentation of zebrafish larvae at 0.03 mM (zebrafish larvae; 0.03 mM, compared with kojic acid 20 mM, 48 h): much stronger depigmentation efficacy than kojic acid
zebrafish larvae death at 0.1 mM (zebrafish larvae; 0.1 mM, 48 h exposure from 28 hpf): died
ROS scavenging activity [3]: stronger ROS scavenging efficacy than the other derivatives

Cc1cccc2[nH]c(CS)nc12 [Derivative 9, (4-Methyl-1H-benzo[d]imidazol-2-yl)methanethiol]
inhibition mechanism (mushroom TYR [1]): mixed TYR inhibitors
inhibition at 20 µM (mushroom TYR [2]; [4]): 54%
inhibition at 20 µM (mushroom TYR [2]; [5]): 86 to 89%

Cc1cc2nc(CS)[nH]c2cc1C [Derivative 10, (5,6-Dimethyl-1H-benzo[d]imidazol-2-yl)methanethiol]
effect on B16F10 cellular TYR activity (B16F10 cellular TYR): significantly reduced stimulator-enhanced cellular TYR activity in a dose-dependent manner
inhibition at 20 µM (mushroom TYR [2]; [4]): 1%
inhibition at 20 µM (mushroom TYR [2]; [5]): 60%
in situ B16F10 cell TYR activity (cell staining) at 10 μM (B16F10 cell TYR): inhibited in situ B16F10 cell TYR activity much more potently than kojic acid
in situ B16F10 cell TYR activity (cell staining), concentration series (B16F10 cell TYR): reduced the increase in cell staining induced by α-MSH and IBMX in a concentration-dependent manner
effect on B16F10 cellular melanin production at 10 μM (B16F10 cells): inhibited melanin production more strongly than kojic acid
effect on B16F10 cellular melanin production at three concentrations (B16F10 cells): significantly decreased the melanin levels increased by the stimulators in a concentration-dependent manner

Fc1ccc2[nH]c(CS)nc2c1 [Derivative 4, (5-Fluoro-1H-benzo[d]imidazol-2-yl)methanethiol]
zebrafish larvae death (zebrafish larvae; [6]): all zebrafish larvae died at the tested concentrations
